According to US8114847B2, “Selective inhibitors of translesion DNA replication” (Case Western Reserve University, priority 2005, dated 2012):
Values joined by “and” are separate entries in the source; they are usually repeats but may differ in a detail not shown here. Equal values may be shown once. Read-outs that look alike come from different tables or passages of the source.

Tests used:
[1] = biological target: T1, gp43exo− (bacteriophage T4 DNA polymerase) (Enterobacteria phage T4, UniProt P04415, D219A); assay: biochemical
T1 sequence (P04415 whole entry D219A, looked up): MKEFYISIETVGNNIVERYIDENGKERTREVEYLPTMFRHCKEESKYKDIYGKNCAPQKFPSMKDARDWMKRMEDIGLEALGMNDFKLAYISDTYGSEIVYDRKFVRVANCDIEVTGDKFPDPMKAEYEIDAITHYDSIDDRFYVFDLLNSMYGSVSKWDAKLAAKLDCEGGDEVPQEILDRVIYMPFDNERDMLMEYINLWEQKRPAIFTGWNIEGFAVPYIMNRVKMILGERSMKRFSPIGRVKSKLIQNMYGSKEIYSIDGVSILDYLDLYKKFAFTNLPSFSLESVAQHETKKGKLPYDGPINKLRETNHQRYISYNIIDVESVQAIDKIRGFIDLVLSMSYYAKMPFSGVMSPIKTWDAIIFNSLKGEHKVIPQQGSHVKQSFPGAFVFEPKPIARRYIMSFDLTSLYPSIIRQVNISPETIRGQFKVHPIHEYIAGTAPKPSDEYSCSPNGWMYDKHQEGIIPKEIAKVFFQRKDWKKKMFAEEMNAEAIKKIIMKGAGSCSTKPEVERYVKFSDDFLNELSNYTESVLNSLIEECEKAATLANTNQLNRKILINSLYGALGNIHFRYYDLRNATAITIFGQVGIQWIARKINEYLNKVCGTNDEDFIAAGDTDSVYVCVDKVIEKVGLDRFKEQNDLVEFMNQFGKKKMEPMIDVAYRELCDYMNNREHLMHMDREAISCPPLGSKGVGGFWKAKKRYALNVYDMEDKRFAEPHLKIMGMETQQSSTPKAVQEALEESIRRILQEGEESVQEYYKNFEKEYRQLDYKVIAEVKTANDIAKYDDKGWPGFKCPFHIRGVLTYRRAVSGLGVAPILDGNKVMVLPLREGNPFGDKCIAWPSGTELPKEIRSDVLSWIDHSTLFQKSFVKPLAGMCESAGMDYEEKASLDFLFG

[2] = biological target: T1, gp43exo− (bacteriophage T4 DNA polymerase); assay type: biochemical
[3] = biological target: T1, gp43exo− (bacteriophage T4 DNA polymerase); conditions: cited from earlier work; for Kd / kpol: opposite an abasic site, previously determined values (Table 7 footnotes d, e, f not given); for Kd: read-out: KD
[4] = biological target: T1, gp43exo− (bacteriophage T4 DNA polymerase); assay: biochemical; assay type: biochemical; conditions: 500 μM dNTPs
[5] = biological target: T1, gp43exo− (bacteriophage T4 DNA polymerase); assay type: biochemical; conditions: 500 μM analogue; 10 μM dNTPs; unmodified 13/20-mer
[6] = biological target: T1, gp43exo− (bacteriophage T4 DNA polymerase); conditions: cited from earlier work
[7] = biological target: T1, gp43exo− (bacteriophage T4 DNA polymerase); assay: biochemical; assay type: biochemical
[8] = biological target: T1, gp43exo− (bacteriophage T4 DNA polymerase); assay: biochemical; conditions: for kpol: pseudo-first-order conditions

For `O=P(O)(O)OP(=O)(O)OP(=O)(O)OC[C@H]1O[C@@H](n2cnc3c(Cl)ncnc32)C[C@@H]1O` [6-Cl-dATP], the kpol [1] was 0.28 ± 0.02 s⁻¹, the “kpol higher/faster than that for dATP” value [1] was 2 fold and the Kd ([1]; read-out: KD) was 83 ± 16 µM. It also gave a kext [2] of 0.031 ± 0.003 s⁻¹.
For `O=P(O)(O)OP(=O)(O)OP(=O)(O)OC[C@H]1O[C@@H](n2ccc3cc(C4=CCCCC4)ccc32)C[C@@H]1O` [5-CE-ITP], the Kd [3] is listed as roughly 10 µM.
With `CNc1ncnc2c1ncn2[C@H]1C[C@H](O)[C@@H](COP(=O)(O)OP(=O)(O)OP(=O)(O)O)O1` [N^6-methyl dATP] the kpol [1] was 5.6+/−0.6 and 5.3 and 5.6 ± 0.6 s^−1, the “kpol higher/faster than that for dATP” value [1] was 40 fold and the Kd ([1]; KD) was 190 µM. For the same compound, the kext [2] was 0.71 ± 0.04 s⁻¹.
For `O=P(O)(O)OP(=O)(O)OP(=O)(O)OC[C@H]1O[C@@H](n2ccc3ccccc32)C[C@@H]1O` [IndTP, reference compound], the “inhibition of replication beyond an abasic site” value ([4]; 20 μM analogue) was “inhibition is not observed”, the “inhibition of replication beyond an abasic site” value ([4]; 350 μM analogue) was “no effect on the kinetics of elongation” and the “inhibition of normal DNA synthesis” value [5] was “do not inhibit normal DNA synthesis”. The kpol [6] was 0.28 ± 0.07 s⁻¹, the kpol/KD [6] was 1900 M⁻¹ s⁻¹ and the Kd ([6]; read-out: KD) was 145 ± 10 µM.
In the case of `O=P(O)(O)OP(=O)(O)OP(=O)(O)OC[C@H]1O[C@@H](n2ccc3cc(F)ccc32)C[C@@H]1O` [5-FITP, 5-Fluoro-indole-2′-deoxyribofuranoside 5′-Triphosphate], the kpol [7] is reported as 0.30 ± 0.03 s⁻¹, the kpol/KD [7] is reported as 2000 M⁻¹ s⁻¹ and the kpol/KD ([8]; Template A) is reported as 0.6 × 10^3 M^−1S^−1. The kpol ([8]; Template A) was 0.11 ± 0.06 s⁻¹, the kpol/KD ([8]; Template T) was 0.29 × 10^3 M^−1S^−1 and the kpol ([8]; Template T) was 0.040 ± 0.003 s⁻¹. The “inhibition of replication beyond an abasic site” value ([4]; 20 μM analogue) was “inhibition is not observed”, the “inhibition of replication beyond an abasic site” value ([4]; 350 μM analogue) was “no effect on the kinetics of elongation” and the “inhibition of normal DNA synthesis” value [5] was “do not inhibit normal DNA synthesis”.
With `COc1nc(N)nc2c1ncn2[C@H]1C[C@H](O)[C@@H](COP(=O)(O)OP(=O)(O)OP(=O)(O)O)O1` [O^6-methyl dGTP] the kpol [1] was 0.98 and 0.98 ± 0.08 s^−1, the “kpol higher/faster than that for dGTP” value [1] was 40 fold and the Kd ([1]; read-out: KD) was 180 µM and 181 µM. For the same compound, the “increase in kext compared with dGTP” value [2] was roughly 20 fold and the kext [2] was 0.092 ± 0.009 s⁻¹.
For `Nc1nc2c(ncn2[C@H]2C[C@H](O)[C@@H](COP(=O)(O)OP(=O)(O)OP(=O)(O)O)O2)c(=O)[nH]1` [dGTP], the kext [2] is listed as 0.005 ± 0.001 s⁻¹, the kpol [3] is listed as 0.023 ± 0.005 s⁻¹ and the Kd [3] is listed as 130 µM.
In the case of `O=c1[nH]cnc2c1ncn2[C@H]1C[C@H](O)[C@@H](COP(=O)(O)OP(=O)(O)OP(=O)(O)O)O1` [dITP], the kpol [1] is reported as 0.044 ± 0.003 s⁻¹, the “kpol lower than that of dATP” value [1] is reported as 3.5 fold and the Kd ([1]; read-out: KD) is reported as 103 ± 14 µM. For the same compound, the “extension beyond dXMP:abasic site mispair” value [2] was “lack of extension”.
In the case of `O=[N+]([O-])c1ccc2[nH]ccc2c1` [5-nitro-indole], the “Catalytic efficiency (kpol/KD)” value [6] is given as 7e+06 M⁻¹ s⁻¹.
In the case of `Nc1ccc2c(ccn2[C@H]2C[C@H](O)[C@@H](COP(=O)(O)OP(=O)(O)OP(=O)(O)O)O2)c1` [5-AITP, 5-Amino-Indole-2′-Deoxyribofuranoside 5″-Triphosphate], the kpol [7] is reported as 0.17 ± 0.01 s⁻¹, the kpol/KD [7] is reported as 700 M⁻¹ s⁻¹ and the kpol/KD ([8]; Template A) is reported as 0.46 × 10^3 M^−1S^−1. The kpol ([8]; Template A) was 0.21 ± 0.01 s⁻¹, the kpol/KD ([8]; Template T) was 0.53 × 10^3 M^−1S^−1 and the kpol ([8]; Template T) was 0.071 ± 0.003 s⁻¹. For the same compound, the “inhibition of replication beyond an abasic site” value ([4]; 20 μM analogue) was “inhibition is not observed”, the “inhibition of replication beyond an abasic site” value ([4]; 350 μM analogue) was “no effect on the kinetics of elongation” and the “inhibition of normal DNA synthesis” value [5] was “do not inhibit normal DNA synthesis”.
For `Nc1ncnc2c1ccn2[C@H]1C[C@H](O)[C@@H](COP(=O)(O)OP(=O)(O)OP(=O)(O)O)O1` [7-Deaza dATP], the “catalytic efficiency higher than that for 7-deaza dGTP” value [1] was greater than 10 fold, the kpol [1] was 1.4 and 1.4 ± 0.1 s^−1 and the “kpol higher/faster than that for dATP” value [1] was roughly 10 fold. The Kd ([1]; KD) was 200 µM and 197 µM and the kext [2] was 0.32 ± 0.03 s⁻¹.
In the case of `Nc1nc2c(ccn2[C@H]2C[C@H](O)[C@@H](COP(=O)(O)OP(=O)(O)OP(=O)(O)O)O2)c(=O)[nH]1` [7-Deaza dGTP], the kpol [1] is reported as 0.11 and 0.11 ± 0.02 s^−1, the “kpol higher/faster than that for dGTP” value [1] is reported as roughly 5 fold and the Kd ([1]; KD) is reported as 215 µM. The “extension beyond dXMP:abasic site mispair” value [2] was “lack of extension”.
In the case of `Nc1ccc2[nH]ccc2c1` [5-amino-indole], the “Catalytic efficiency (kpol/KD)” value [7] is reported as 500 M⁻¹ s⁻¹.
With `Nc1ncnc2c1[nH]c(=O)n2[C@H]1C[C@H](O)[C@@H](COP(=O)(O)OP(=O)(O)OP(=O)(O)O)O1` [8-Oxo dATP] the “incorporation opposite an abasic site” value [1] was “no incorporation was observed”.
In the case of `c1ccc2[nH]ccc2c1` [indole, reference compound], the “Catalytic efficiency (kpol/KD)” value [6] is given as 1900 M⁻¹ s⁻¹.
For `Nc1ncnc2c1ncn2[C@H]1C[C@H](O)[C@@H](COP(=O)(O)OP(=O)(O)OP(=O)(O)O)O1` [dATP], the kext [2] is listed as 0.25 ± 0.01 s⁻¹, the kpol [6] is listed as “≈ 0.15 s^−1” and the kpol/KD [6] is listed as 4300 M⁻¹ s⁻¹. The “overall catalytic efficiency opposite an abasic site greater than dGTP” value [3] was roughly 35 fold, the kpol [3] was 0.15 s⁻¹ and 0.15 ± 0.01 s⁻¹ and the Kd [3] was 35 µM.
For `c1ccc(-c2ccc3[nH]ccc3c2)cc1` [5-phenyl-indole], the “Catalytic efficiency (kpol/KD)” value [7] was 3.8e+06 M⁻¹ s⁻¹.
In the case of `CNc1nc2c(ncn2[C@H]2C[C@H](O)[C@@H](COP(=O)(O)OP(=O)(O)OP(=O)(O)O)O2)c(=O)[nH]1` [N^2-methyl dGTP], the kpol [1] is reported as 0.12 and 0.12 ± 0.02 s^−1, the “kpol higher/faster than that for dGTP” value [1] is reported as roughly 5 fold and the Kd ([1]; read-out: KD) is reported as 245 µM.
With `Nc1nc(N)c2ncn([C@H]3C[C@H](O)[C@@H](COP(=O)(O)OP(=O)(O)OP(=O)(O)O)O3)c2n1` [2,6-DAPTP] the kpol [1] was 2.4 s⁻¹ and 2.4 ± 0.3 s⁻¹, the “kpol higher/faster than that for dATP” value [1] was 16 fold and the Kd ([1]; read-out: KD) was 900 µM. It also gave a kext [2] of 0.016 ± 0.003 s⁻¹.
For `Nc1nc(Cl)c2ncn([C@H]3C[C@H](O)[C@@H](COP(=O)(O)OP(=O)(O)OP(=O)(O)O)O3)c2n1` [6-Cl-2APTP], the kpol [1] was 0.12 and 0.12 ± 0.01 s^−1, the Kd ([1]; read-out: KD) was 71 ± 20 µM and the “elongated slower compared to dATP, N^7-deaza dATP and N^6-methyl dATP” value [2] was roughly 10 fold. It also gave a kext [2] of 0.033 ± 0.004 s⁻¹.
In the case of `Fc1ccc2[nH]ccc2c1` [5-fluoro-indole], the “Catalytic efficiency (kpol/KD)” value [7] is reported as 2000 M⁻¹ s⁻¹.
In the case of `Nc1ncnc2nc[nH]c12` [adenine, reference compound], the “Catalytic efficiency (kpol/KD)” value [6] is listed as 1500 M⁻¹ s⁻¹.
